Measurements published in US20260207769A1, “ANTIBODY DRUG CONJUGATES” (YALE UNIVERSITY, priority 2022, published 2026).

Legend:
WT DLD-1 cells = assay: Single 24 hour treatment, long-term viability of WT DLD-1 cells; assay type: cell-based, human; settings: WT DLD-1, 24 hour treatment, days 3, 5 and 7
Description: The effects of treatment with the SN38 or 3E10-SN38 conjugates on the colorectal cancer DLD-1 cell line were investigated. WT and BRCA2^−/− deficient DLD-1 cells were tested. FIG. 13 provides the study protocol and timeline. Each well of a 96-well plate was loaded with 1000 DLD-1 cells. 24 hours post-plating, cells were treated with different concentrations of cWT-SN38 conjugate, cD31N-SN38 conjugate, or SN38 for 24 hours. After treatment, the media was replaced with fresh treatment-free media and was not changed again. Cell viability and half maximal effective concentration (EC50) were tracked every 48 hours post-treatment on days 3, 5, and 7. Half maximal effective concentration (EC50) is a measure of the concentration of a drug, antibody or toxicant which induces a response halfway between the baseline and maximum after a specified exposure time.

HCT116- IDH1^mut cells = assay: Cell viability of HCT116-IDH1mut cells; assay type: cell-based
Description: WT and mutant IDH1 (IDH1^mut) HCT116 cells were treated with different concentrations of SN38, cD31N antibody, or cD31N-SN38 conjugate. The effects of 3E10-cD31N-SN38 conjugate treatment on HCT116 WT and HCT116IDH1^mut were investigated.

[1] = system: DNA damage response proteins such as γH2AX, p-ATM, and p-ATR; assay: Western blot of DNA damage response proteins in BRCA2-/- DLD-1 cells; assay type: cell-based, human
Description: SN38 causes DNA damage via inhibition of topoisomerase I. Therefore, DNA damage was measured in both wild-type (WT) and BRCA2 deficient (BRCA2′) DLD-1 cells by induction of γH2AX after treatment with one of the following: no treatment (NT), SN38 alone (SN38), wild-type 3E10 antibody alone (cWT), 3E10-cD31N antibody alone, cWT-SN38 conjugate, or cD31N-SN38 conjugate. After treatment with 100 nM of the antibody or conjugate for 48 hours, the DLD-1 cells were collected for Western blot analysis to measure 7H2AX protein levels. […] These findings were consistent in both WT and BRCA2^−/− DLD-1 cells, but γH2AX protein levels were elevated across all groups in BRCA2^−/− DLD-1 cells.
DNA damage caused by SN38 or 3E10-SN38 conjugates in WT and BRCA2^−/− DLD-1 cells was assessed by measuring the levels of proteins involved in DNA damage response, p-ATM, p-ATR, pBRCA1, Topoisomerase 1 (TOPO-1), pChk2, pChk1, γH2AX and H2AX. DLD-1 cells were treated with 100 nM of SN38, cWT antibody, cD31N antibody, cWT-SN38 conjugate, or cD31N-SN38 conjugate and collected for Western blot after 24 (FIG. 21A) and 48 hours (FIG. 21B). No treatment (NT) was used as control.

CCc1c2c(nc3ccc(O)cc13)-c1cc3c(c(=O)n1C2)COC(=O)[C@]3(O)CC [SN38, SN-38]
EC50 values compared between treatments (WT DLD-1 cells): lower EC50 value than both 3E10-SN38 conjugates
cell viability (HCT116- IDH1^mut cells; 5 days of treatment): substantial loss in cell viability
cell viability (HCT116- IDH1^mut cells; 7 days of treatment): substantial loss in cell viability
protein levels of DNA damage response proteins ([1]; BRCA2-/- DLD-1, 100 nM, 24 and 48 hour time points): increased the protein levels of DNA damage response proteins such as γH2AX, p-ATM, and p-ATR
TOPO-1 levels ([1]; BRCA2-/- DLD-1, 100 nM, 24 and 48 hours): reduced TOPO-1 levels
γH2AX induction (Western blot) ([1]; BRCA2-/- DLD-1, 100 nM, 24 hours (Example 10)): 7H2AX was induced
γH2AX protein levels (Western blot) ([1]; BRCA2-/- DLD-1 cells, 100 nM, 48 hours (Example 5)): induced the highest levels of γH2AX expression
